≈ marks a conversion by molar mass, not a printed value.
Assays:
[1] = tested on: Seratia fonticola clinical isolate (1); test: MIC, clinical isolates; format: cell-based, Serratia fonticola; conditions: Table S1, RKI 517/16
Method: The strains that were used in this study (Table 2 and Table S1) were cultivated at 37 °C in cation-adjusted Mueller–Hinton broth (CAMB) in Erlenmeyer flasks, or on the same medium with agar in Petri dishes. Exceptionally, Mycobacterium smegmatis was cultivated at 37 °C in brain heart infusion (BHI) medium that was supplemented with 1% Tween-80 in Erlenmeyer flasks, or on the same medium lacking detergent but with agar in Petri dishes. Strains listed with Robert Koch Institute (RKI) strain numbers are clinical isolates from the RKI strain collection originating from hospitalized patients in Germany. The remaining strains originated from the Sanofi strain collection and they were originally purchased from the American Type Culture Collection or the German Collection of Microorganisms and Cell Cultures. Meropenem/colistin-resistant strains were maintained, as described above, with the appropriate antibiotic added at levels below the minimal inhibitory concentration (MIC).
The MIC values were determined in 384-well microtiter plates with an assay volume of 20 µL. […] The growth of M. smegmatis was measured using the BacTiter-Glo luminescence test system (Promega, Madison, WI, USA). The growth of the other species was determined by visual inspection of the microtiter plate and turbidimetry based on the optical density at 600 nm (OD600). […]

A. baumannii ATCC19606 = test: Checkerboard assay EtDip with colistin; format: cell-based, Acinetobacter baumannii; conditions: CAMB, + 150 mM NaCl, + 1.25 mM CaCl2; FICindex ≤0.5 = synergy
Method: The interactions between pairs of compounds were analyzed using checkerboard assays in a 384-well microtiter plate with an assay volume of 20 µL. Immediately before the test runs, the bacterial cultures were diluted in CAMB to a density of 5 × 10^5 cells/mL. The two compounds for combinatorial testing were arrayed as 10-fold concentrated serial dilutions with respect to the final concentration, vertically for one compound and horizontally for the other, in the same 384-well microplate. Subsequently, we transferred 2-µL aliquots to new 384-well microtiter plates, and growth inhibition in each well was determined, as described for the MIC values above. Fractional inhibitory concentration (FIC) and FICindex values for each combination were calculated using the following formulae, where a
FICindex ≤0.5 indicates synergy and a FICindex >4 indicates antagonism.
FIC for compound A = MIC of compound A in combination/MIC of compound A
FIC for compound B = MIC of compound B in combination/MIC of compound B

Molecule | MIC [1] [µg/mL] | interaction with colistin (FICindex) (A. baumannii ATCC19606)
C[C@@H](O)[C@H]1C(=O)N2C(C(=O)O)=C(S[C@@H]3CN[C@H](C(=O)N(C)C)C3)[C@H](C)[C@H]12 [MEM, meropenem] | 32 (≈ 83.4 µM) | –
QFNMQGGGSPRQGFDVNANARFPIWQSQNARNSVHGTASYAQHLGGPYGNSRPNFGGGLQFT [EtDip, diptericin-like peptide of Eristalis tenax] | – | Synergistic interactions
